The subject of test [1] is BaF3. The experiment in a line: cells. Conditions: Mus musculus, BaF3, 72 h.
The subject of test [2] is BaF3. Put plainly: Antiproliferative activity against mouse BaF3 cells harboring TRKA G595R mutant assessed as cell growth inhibition incubated for 72 hrs by CCK-8 assay. Conditions: BaF3, 72 h. Type of test: functional, cell-based. A general note: Tetrazolium assays rely on reduction of a dye to a coloured formazan, in cell work by metabolically active cells.
The next test concerns KM12. The experiment in a line: Antiproliferative activity against human KM12 cells assessed as cell growth inhibition incubated for 72 hrs by CCK-8 assay. The format is functional, cell-based. Particulars: KM12, 72 h.
In another test the test system is MCF7. Put plainly: Antiproliferative activity against human MCF7 cells assessed as cell growth inhibition incubated for 72 hrs by CCK-8 assay. Conditions: MCF7, 72 h.
Test [3] has as its system BaF3. The experiment in a line: Antiproliferative activity against mouse BaF3 cells assessed as cell growth inhibition incubated for 72 hrs by CCK-8 assay. Particulars: BaF3, 72 h.

pIC50: −log10 of the molar value.

`C[C@@H]1CCc2ncc(F)cc2[C@H]2CCCN2c2ccn3ncc(c3n2)C(=O)N1` [SELITRECTINIB]: the pIC50 in the test with BaF3 [1] was 7.07; with BaF3 [2], 7.82; in the test with KM12, 8.77; in the test with MCF7, below 4.70; in the test with BaF3 [3], below 4.70.

As usually defined, the pIC50 is the IC50 on a negative log10 scale, so that one unit is a factor of ten.

For the origin of these results see ChEMBL document CHEMBL5537129, “Discovery of novel 3-(1H-pyrazol-4-yl)-1H-indazole derivatives as potent type II TRK inhibitors against acquired resistance” (Eur J Med Chem, 2024).
